In US8496913B2, “Compressed chewing gum tablet” (Gumlink A/S, priority 2005, dated 2013):

Tested on: plaque
Conditions: in vivo

CC(=O)[O-].CC(=O)[O-].[Zn+2] [zinc acetate]
effect on plaque in hard-to-reach places: with high efficiency
